Test results from patent US20240228504A1, “SUBSTITUTED TRICYCLIC AMIDES, ANALOGUES THEREOF, AND METHODS USING SAME” (Arbutus Biopharma Corporation, priority 2020, published 2024).

The compounds below were run on HBV rcDNA in HepDE19 cells (assay: HepDE19 assay with bDNA quantitation of HBV rcDNA). Conditions: HepDE19 assay, inhibition of rcDNA formation, bDNA quantitation; read-out: DE-19bDNA EC50.
Assay type: cell-based, hepatitis B virus
`CN(C(=O)c1cc2ccccn2c1)C1CNCc2[nH]c(=O)c3cc(F)c(F)cc3c21` (single isomer, unassigned) [Compound 506, N-(8,9-Difluoro-6-oxo-1,2,3,4,5,6-hexahydrobenzo[c][1,7]naphthyridin-1-yl)-N-methylindolizine-2-carboxamide] was tested, and the EC50 was 22000 nM. `Cc1cccc2[nH]c(C(=O)N(C)C3COCc4[nH]c(=O)c5cc(F)ccc5c43)cc12` (single isomer, unassigned) [Compound 423, N-(8-Fluoro-6-oxo-1,4,5,6-tetrahydro-2H-pyrano[3,4-c]isoquinolin-1-yl)-N,4-dimethyl-1H-indole-2-carboxamide] was tested, and the EC50 was 10 nM. Compound `CN(C(=O)c1cc2ccccc2[nH]1)C1CNCc2[nH]c(=O)c3cc(F)c(F)cc3c21` (single isomer, unassigned) [Compound 55, N-(8,9-Difluoro-6-oxo-1,2,3,4,5,6-hexahydrobenzo[c][1,7]naphthyridin-1-yl)-N-methyl-1H-indole-2-carboxamide] has an EC50 of 10 nM. `CN(C(=O)c1cc2cc(C#N)ccc2[nH]1)C1COCc2[nH]c(=O)c3cc(F)ccc3c21` (single isomer, unassigned) [Compound 397, 5-Cyano-N-(8-fluoro-6-oxo-1,4,5,6-tetrahydro-2H-pyrano[3,4-c]isoquinolin-1-yl)-N-methyl-1H-indole-2-carboxamide] gave an EC50 of 17000 nM. Work on `CN(C(=O)c1cc2cc(F)c(C(F)F)cc2[nH]1)C1CNCc2[nH]c(=O)c3cc(F)c(F)cc3c21` (single isomer, unassigned) [Compound 221, N-(8,9-Difluoro-6-oxo-1,2,3,4,5,6-hexahydrobenzo[c][1,7]naphthyridin-1-yl)-6-(difluoromethyl)-5-fluoro-N-methyl-1H-indole-2-carboxamide] yielded an EC50 of 30 nM. For `CN(C(=O)C1Cc2c(F)cc(F)cc2N1)C1COCc2[nH]c(=O)c3cc(F)c(F)cc3c21` (stereo not drawn) [Compound 16, N-(8,9-Difluoro-6-oxo-1,4,5,6-tetrahydro-2H-pyrano[3,4-c]isoquinolin-1-yl)-4,6-difluoro-N-methylindoline-2-carboxamide], the EC50 was 20 nM. `CN(C(=O)c1cc2sccc2[nH]1)C1CNCc2[nH]c(=O)c3cc(F)c(F)cc3c21` (single isomer, unassigned) [Compound 420, N-(8,9-Difluoro-6-oxo-1,2,3,4,5,6-hexahydrobenzo[c][1,7]naphthyridin-1-yl)-N-methyl-4H-thieno[3,2-b]pyrrole-5-carboxamide] was tested, and the EC50 was 660 nM. Compound `CN(C(=O)c1ccc2scnc2c1)C1COCc2[nH]c(=O)c3cc(F)ccc3c21` (single isomer, unassigned) [Compound 445, N-(8-fluoro-6-oxo-1,4,5,6-tetrahydro-2H-pyrano[3,4-c]isoquinolin-1-yl)-N-methylbenzo[d]thiazole-5-carboxamide] has an EC50 of 700 nM. For `CN(C(=O)c1cc2ccccc2[nH]1)C1COCc2[nH]c(=O)c3cc(F)ccc3c21` (single isomer, unassigned) [Compound 1, N-(8-Fluoro-6-oxo-1,4,5,6-tetrahydro-2H-pyrano[3,4-c]isoquinolin-1-yl)-N-methyl-1H-indole-2-carboxamide], the EC50 was 8600 nM. For `CN(C(=O)c1cc2c(C(F)F)cccn2c1)C1CNCc2[nH]c(=O)c3cc(F)c(F)cc3c21` (single isomer, unassigned) [Compound 431, N-(8,9-Difluoro-6-oxo-1,2,3,4,5,6-hexahydrobenzo[c][1,7]naphthyridin-1-yl)-8-(difluoromethyl)-N-methylindolizine-2-carboxamide], the EC50 was 10 nM.

Same assay, conditions: Hepatitis B virus, HepDE19, HepDE19 assay, inhibition of rcDNA formation, bDNA quantitation; read-out: DE-19bDNA EC50
`CN(C(=O)c1cccc(C(C)(C)O)c1)[C@@H]1COCc2[nH]c(=O)c3cc(F)c(F)cc3c21` [Compound 155, (S)-N-(8,9-Difluoro-6-oxo-1,4,5,6-tetrahydro-2H-pyrano[3,4-c]isoquinolin-1-yl)-3-(2-hydroxypropan-2-yl)-N-methylbenzamide] was tested, and the EC50 was 4490 nM. `CN(C(=O)c1cc2cc(F)ccc2[nH]1)[C@@H]1CCCc2[nH]c(=O)c3cc(F)c(F)cc3c21` [Compound 480, (R)-N-(8,9-difluoro-6-oxo-1,2,3,4,5,6-hexahydrophenanthridin-1-yl)-5-fluoro-N-methyl-1H-indole-2-carboxamide] showed an EC50 of 10 nM. In the case of `CN(C(=O)c1cc2sc(Cl)cc2[nH]1)[C@@H]1COC(O)c2[nH]c(=O)c3cc(F)c(F)cc3c21` (stereo partly drawn) [Compound 487, 2-Chloro-N-((1S)-8,9-difluoro-4-hydroxy-6-oxo-1,4,5,6-tetrahydro-2H-pyrano[3,4-c]isoquinolin-1-yl)-N-methyl-4H-thieno[3,2-b]pyrrole-5-carboxamide], the EC50 is reported as 20 nM. In the case of `CN(C(=O)c1cc2cccc(C(F)F)n2c1)[C@@H]1COCc2[nH]c(=O)c3cc(F)c(F)cc3c21` [Compound 266, (S)-N-(8,9-Difluoro-6-oxo-1,4,5,6-tetrahydro-2H-pyrano[3,4-c]isoquinolin-1-yl)-5-(difluoromethyl)-N-methylindolizine-2-carboxamide], the EC50 is reported as 20 nM. In the case of `CN(C(=O)C(N)c1cccc(Cl)c1)[C@@H]1COCc2[nH]c(=O)c3cc(F)c(F)cc3c21` (single isomer, unassigned) [Compound 202], the EC50 is reported as 16000 nM. `COc1ccc2[nH]c(C(=O)N(C)[C@@H]3COCc4[nH]c(=O)c5cc(F)c(F)cc5c43)cc2c1` [Compound 324, (S)-N-(8,9-Difluoro-6-oxo-1,4,5,6-tetrahydro-2H-pyrano[3,4-c]isoquinolin-1-yl)-5-methoxy-N-methyl-1H-indole-2-carboxamide] showed an EC50 of 70 nM. `CN(C(=O)c1nc2ccccc2o1)[C@@H]1COCc2[nH]c(=O)c3cc(F)c(F)cc3c21` [Compound 124, (S)-N-(8,9-Difluoro-6-oxo-1,4,5,6-tetrahydro-2H-pyrano[3,4-c]isoquinolin-1-yl)-N-methylbenzo[d]oxazole-2-carboxamide] showed an EC50 of 1100 nM. In the case of `CN(C(=O)c1cncc(Cl)c1)[C@@H]1COCc2[nH]c(=O)c3cc(F)c(F)cc3c21` [Compound 84, (S)-5-Chloro-N-(8,9-difluoro-6-oxo-1,4,5,6-tetrahydro-2H-pyrano[3,4-c]isoquinolin-1-yl)-N-methylnicotinamide], the EC50 is reported as 5700 nM. Work on `Cc1cccc2[nH]c(C(=O)N(C)[C@@H]3CCCc4[nH]c(=O)c5cc(F)ccc5c43)cc12` [Compound 491, (R)-N-(8-fluoro-6-oxo-1,2,3,4,5,6-hexahydrophenanthridin-1-y1)-N,4-dimethyl-1H-indole-2-carboxamide] yielded an EC50 of 20 nM. In the case of `CN(C(=O)c1ccc(-c2ccc(F)cc2)cc1)[C@@H]1COCc2[nH]c(=O)c3cc(F)c(F)cc3c21` [Compound 250, (S)-N-(8,9-Difluoro-6-oxo-1,4,5,6-tetrahydro-2H-pyrano[3,4-c]isoquinolin-1-yl)-4′-fluoro-N-methyl-[1,1′-biphenyl]-4-carboxamide], the EC50 is reported as 8100 nM. `CN(C(=O)c1cnn(C)c1)[C@@H]1COCc2[nH]c(=O)c3cc(F)c(F)cc3c21` [Compound 188, (S)-N-(8,9-Difluoro-6-oxo-1,4,5,6-tetrahydro-2H-pyrano[3,4-c]isoquinolin-1-yl)-N,1-dimethyl-1H-pyrazole-4-carboxamide] gave an EC50 of 18300 nM. `CN(C(=O)c1cc2cncc(Br)c2o1)[C@@H]1COCc2[nH]c(=O)c3cc(F)c(F)cc3c21` [Compound 356, (S)-7-Bromo-N-(8,9-difluoro-6-oxo-1,4,5,6-tetrahydro-2H-pyrano[3,4-c]isoquinolin-1-yl)-N-methylfuro[3,2-c]pyridine-2-carboxamide] gave an EC50 of 1500 nM. Compound `CN(C(=O)c1ccc2c(c1)c(Cl)nn2C(F)F)[C@@H]1COCc2[nH]c(=O)c3cc(F)c(F)cc3c21` [Compound 359, (S)-3-chloro-N-(8,9-difluoro-6-oxo-1,4,5,6-tetrahydro-2H-pyrano[3,4-c]isoquinolin-1-yl)-1-(difluoromethyl)-N-methyl-1H-indazole-5-carboxamide] has an EC50 of 10 nM. Compound `CN(C(=O)c1ccc2scnc2c1)[C@@H]1COCc2[nH]c(=O)c3cc(F)c(F)cc3c21` [Compound 427, (S)-N-(8,9-Difluoro-6-oxo-1,4,5,6-tetrahydro-2H-pyrano[3,4-c]isoquinolin-1-yl)-N-methylbenzo[d]thiazole-5-carboxamide] has an EC50 of 170 nM. In the case of `CN(C(=O)c1cc2cc(C#N)ccc2[nH]1)[C@@H]1COCc2[nH]c(=O)c3cc(F)c(F)cc3c21` [Compound 345, (S)-5-Cyano-N-(8,9-difluoro-6-oxo-1,4,5,6-tetrahydro-2H-pyrano[3,4-c]isoquinolin-1-yl)-N-methyl-1H-indole-2-carboxamide], the EC50 is reported as 30 nM. Work on `CN(C(=O)c1ccc2cn[nH]c2c1)C1COCc2[nH]c(=O)c3cc(F)ccc3c21` (single isomer, unassigned) [Compound 469, N-(8-fluoro-6-oxo-1,4,5,6-tetrahydro-2H-pyrano[3,4-c]isoquinolin-1-yl)-N-methyl-1H-indazole-6-carboxamide] yielded an EC50 of 2200 nM. `CN(C(=O)c1cc(F)c(Br)c(F)c1)[C@@H]1COCc2[nH]c(=O)c3cc(F)c(F)cc3c21` [Compound 172, 4-Bromo-N-(8,9-difluoro-6-oxo-2,4,5,6-tetrahydro-1H-pyrano[3,4-c]isoquinolin-1-yl)-3,5-difluoro-N-methylbenzamide] showed an EC50 of 10 nM. `CN(C(=O)c1ccc2cc(C(F)(F)F)cn2c1)[C@@H]1COCc2[nH]c(=O)c3cc(F)c(F)cc3c21` [Compound 311, (S)-N-(8,9-Difluoro-6-oxo-1,4,5,6-tetrahydro-2H-pyrano[3,4-c]isoquinolin-1-yl)-N-methyl-2-(trifluoromethyl)indolizine-6-carboxamide] showed an EC50 of 140 nM. With `CN(C(=O)c1cnc(C(F)(F)F)c(Cl)c1)[C@@H]1COCc2[nH]c(=O)c3cc(F)c(F)cc3c21` [Compound 377, (S)-5-Chloro-N-(8,9-difluoro-6-oxo-1,4,5,6-tetrahydro-2H-pyrano[3,4-c]isoquinolin-1-yl)-N-methyl-6-(trifluoromethyl)nicotinamide] the EC50 was 40 nM. `CN(C(=O)c1cc2ccsc2[nH]1)[C@@H]1COCc2[nH]c(=O)c3cc(F)c(F)cc3c21` [Compound 294, (S)-N-(8,9-Difluoro-6-oxo-1,4,5,6-tetrahydro-2H-pyrano[3,4-c]isoquinolin-1-yl)-N-methyl-6H-thieno[2,3-b]pyrrole-5-carboxamide] was tested, and the EC50 was 50 nM.
